Results reported in patent US20250345394A1, “HAIR-GROWING OR HAIR-FOSTERING AGENT BASED ON KERATIN FINE PARTICLES” (MYQTECH INC., priority 2022, published 2025).

Tested on: C57BL/6 mice
Assay: Hair growing effect on mice (topical application to shaved dorsal region)
Format: in vivo
Settings: 1% topically every day, male C57BL/6 mice
Procedure: In the present example, the hair growing effect of keratin microparticles on mice was investigated. The experiment was approved by Institutional Animal Care and Use Committee, University of Tsukuba (No. 17-060), and the procedure was carried out in conformity with the “Guiding principles for the care and use of animals in the field of physiological sciences” approved by the board of Physiological Society of Japan.
Six-week-old male C57BL/6 mice (Charles River Japan Inc.) were kept individually in a cage. acclimated for 1 week, and then randomly assigned to experiment groups (each group n=5) of a 1% Minoxidil treated group, a 1% keratin treated group, a 1% keratin microparticles treated group, and a milli-Q water treated group (control group). The mice were anesthetized with Isoflurane (Wako Pure Chemical Industries, Ltd.) and then telogen hair at the dorsal region of the mice was shaved using a hair clipper to induce the growth phase. […]
In the end of treatment period, the mice were slaughtered by cervical dislocation. […] Using ImageJ processing program (National Institutes of Health, Bethesda, USA), the hair regrowth at the treated area was measured.

Question: How did the “time of hair regrowth phenotype” value turn out when `Nc1cc(N2CCCCC2)nc(N)[n+]1[O-]` [Minoxidil] was run?
Answer: ~10 day after application
